These results are taken from PubChem BioAssay (NCI).

Values joined by “and” are separate entries in the source; they are usually repeats but may differ in a detail not shown here. Equal entries are not always repeated.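 Protocol summary: plate cells (96-well), add compound at 5 concentrations, incubate 48 h, interpolate endpoints linearly. GI50 is the concentration that inhibits growth by half. Definition used: TGI = concentration required for complete inhibition of growth.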 Bounds are passed on as bounds.

Some test systems named below: K-562 leukemia; SF-539 CNS; MCF7 breast; OVCAR-4 ovarian; ACHN renal; SNB-75 CNS; CAKI-1 renal; NCI-H226 lung.
Holding throughout (test): DTP human tumour cell line panel, 48 h

On to `Cc1c2ccncc2c(C)c2c1c1cc(CO)ccc1n2C`, for which the GI50 (in general, the concentration at which growth is held to half of that of the control) is 0.473 µM with K-562 leukemia; 0.73 µM in the experiment with SF-539 CNS; 0.282 µM in the experiment with MCF7 breast; 0.285 µM in the experiment with OVCAR-4 ovarian; 0.362 µM in the experiment on ACHN renal; 1.07 µM with SNB-75 CNS. The TGI (usually the concentration at which net growth stops) in the experiment with K-562 leukemia worked out at 5.82 µM; in the experiment on SF-539 CNS, 4.2 µM; in the experiment on MCF7 breast it was 10.4 µM; with OVCAR-4 ovarian, 1.82 µM; in the experiment on ACHN renal, 9.39 µM; in the experiment on SNB-75 CNS, 2.7 µM.
Consider `CCN(CC)C(=S)SSC(=S)N(CC)CC`, for which the GI50 is 25.2 µM and 19.6 µM in the experiment on K-562 leukemia; 18.8 µM and 17.9 µM in the experiment with SF-539 CNS; 12.6 µM and 20.8 µM in the experiment on CAKI-1 renal; 27.6 µM and 82 µM in the experiment on NCI-H226 lung; 13.5 µM and 13 µM in the experiment on OVCAR-4 ovarian; 19 µM and 18 µM with ACHN renal. Also, the GI50 with SNB-75 CNS is 20.7 µM and 18.2 µM. The TGI in the experiment on K-562 leukemia is 51.5 µM and 47.3 µM; in the experiment on SF-539 CNS, 38.6 µM and 37.1 µM; with CAKI-1 renal it was 26.3 µM and 77.9 µM; in the experiment with NCI-H226 lung, > 58.7 µM and 307 µM; in the experiment with OVCAR-4 ovarian, 28.9 µM and 26.4 µM; in the experiment on ACHN renal, 36.9 µM and 34.4 µM. In addition, in the experiment on SNB-75 CNS, the TGI is > 56.7 µM and 57.3 µM.
On to `Nc1ncccc1-c1nc2ccc(-c3ccccc3)nc2n1-c1ccc(C2(N)CCC2)cc1`, for which the GI50 was 1.89 µM in the experiment on K-562 leukemia; 0.978 µM with SF-539 CNS; 0.0465 µM in the experiment with MCF7 breast; 5.02 µM with NCI-H226 lung; 4.06 µM with OVCAR-4 ovarian; 1.14 µM in the experiment with ACHN renal. Also, the GI50 with SNB-75 CNS was 0.0859 µM. The TGI came to 4.5 µM in the experiment with K-562 leukemia; 2.52 µM with SF-539 CNS; 1.68 µM in the experiment on MCF7 breast; 23.7 µM in the experiment with NCI-H226 lung; 18.7 µM in the experiment on OVCAR-4 ovarian; 3.19 µM in the experiment with ACHN renal. For the same compound, the TGI in the experiment on SNB-75 CNS was 1.7 µM.
In the case of `C=C1C(=O)O[C@H]2[C@H]1CC/C(CNC(=O)/C=C/c1ccccc1)=C\CC[C@@]1(C)O[C@@H]21`, the GI50 in the experiment with K-562 leukemia is 0.551 µM; in the experiment on SF-539 CNS it was 0.964 µM; in the experiment on CAKI-1 renal, 1.17 µM; with NCI-H226 lung it was 2.5 µM; with OVCAR-4 ovarian, 1.51 µM; in the experiment with ACHN renal it was 0.755 µM. Further, in the experiment with SNB-75 CNS, the GI50 was 1.67 µM. Further, the TGI worked out at 7.09 µM with K-562 leukemia; 2.37 µM in the experiment with SF-539 CNS; 2.49 µM in the experiment with CAKI-1 renal; 6.59 µM with NCI-H226 lung; 4.14 µM in the experiment with OVCAR-4 ovarian; 2.03 µM in the experiment on ACHN renal. For the same compound, the TGI with SNB-75 CNS was 4.74 µM.
With `Cc1ccc(Sc2oc(-c3ccc(C)cc3)nc2[P+](c2ccccc2)(c2ccccc2)c2ccccc2)cc1`, the GI50 is 0.302 µM with K-562 leukemia; 0.404 µM in the experiment with SF-539 CNS; 0.286 µM in the experiment with MCF7 breast; 0.283 µM in the experiment on CAKI-1 renal; 0.28 µM with OVCAR-4 ovarian; 0.311 µM in the experiment on ACHN renal. Further, in the experiment on SNB-75 CNS, the GI50 was 0.154 µM. In addition, the TGI was 1.52 µM with K-562 leukemia; 1.53 µM with SF-539 CNS; 1.09 µM in the experiment with MCF7 breast; 1.06 µM in the experiment with CAKI-1 renal; 1.43 µM with OVCAR-4 ovarian; 1.16 µM with ACHN renal. This compound registered a TGI in the experiment with SNB-75 CNS of 0.846 µM.
On to `COc1cc(C2CC(=O)Nc3c2cc(Br)c2ccccc32)cc(Br)c1OC` (stereo not drawn), for which the GI50 with K-562 leukemia was 0.493 µM; in the experiment with SF-539 CNS, 3.27 µM; in the experiment with MCF7 breast, 0.642 µM; in the experiment on NCI-H226 lung, 2.34 µM; with OVCAR-4 ovarian it was 0.349 µM; with SNB-75 CNS, 0.998 µM. The TGI in the experiment on K-562 leukemia was 20.5 µM; in the experiment with SF-539 CNS, above 58.6 µM; in the experiment on MCF7 breast it was above 100 µM; in the experiment with NCI-H226 lung, 5.57 µM; with OVCAR-4 ovarian it was 1.44 µM; in the experiment with SNB-75 CNS, 2.52 µM.
`Nc1cc2cccc[n+]2c2cccc(Cl)c12`: the GI50 in the experiment on K-562 leukemia was 11.2 µM; in the experiment with SF-539 CNS, 23 µM; in the experiment with MCF7 breast, 19.4 µM; in the experiment with NCI-H226 lung, 18 µM; in the experiment with OVCAR-4 ovarian, 17.1 µM; in the experiment with ACHN renal it was 41.8 µM. In addition, the TGI in the experiment on SF-539 CNS stood at 71.2 µM; in the experiment with NCI-H226 lung it was 86 µM; in the experiment on OVCAR-4 ovarian it was 72.8 µM.
Consider `COc1ccc(Oc2ccccc2NC(=O)CNC(=O)c2cccc3ccccc23)cc1`, for which the concentration for 50% growth inhibition (GI50) in the experiment on K-562 leukemia is 0.143 µM; in the experiment on MCF7 breast it was 0.259 µM; in the experiment with NCI-H226 lung, 4.3 µM; with OVCAR-4 ovarian, 2.26 µM; with ACHN renal it was 1.53 µM. Also, the concentration for total growth inhibition (TGI) in the experiment on K-562 leukemia, with MCF7 breast, with NCI-H226 lung, in the experiment on OVCAR-4 ovarian and with ACHN renal was above 25 µM in each case.
Turning to `CC/C=C\C/C=C/C=C1/C(=O)C=C[C@@H]1C/C=C\CCCC(=O)OC`, the GI50 with K-562 leukemia was 1.38 µM; with SF-539 CNS, 3.04 µM; in the experiment with MCF7 breast it was 0.5 µM; in the experiment with CAKI-1 renal it was 3.22 µM; in the experiment on OVCAR-4 ovarian it was 4.24 µM; in the experiment on ACHN renal, 1.97 µM. Also, the GI50 with SNB-75 CNS is 25 µM. For the same compound, the TGI in the experiment on K-562 leukemia is 20.9 µM; in the experiment on SF-539 CNS, 10 µM; with MCF7 breast, 12.5 µM; in the experiment on CAKI-1 renal it was 10.7 µM; in the experiment on OVCAR-4 ovarian it was 17.3 µM; in the experiment with ACHN renal, 3.99 µM. In the experiment with SNB-75 CNS, this compound displayed a total growth inhibition concentration (TGI) above 100 µM.
